Assay results from US20070026506A1, “METHOD FOR THE PRODUCTION OF TAXOL AND/OR TAXANES FROM CULTURES OF HAZEL CELLS” (Centro Biotecnologie Avanzate, priority 2005, published 2007).

Key:
Assay type in all cases: cell-based
[1] = tested on: explants of Taxus baccata; assay: callus induction from explants of Taxus baccata; details: for CALLUS INDUCTION 30 days Leaves (%) / CALLUS INDUCTION 60 days Leaves (%): T. baccata leaves; for CALLUS INDUCTION 30 days Seeds (%) / CALLUS INDUCTION 60 days Seeds (%): T. baccata seeds; for CALLUS INDUCTION 30 days Stems (%) / CALLUS INDUCTION 60 days Stems (%): T. baccata stems
Procedure: (§1) Therefore, in vitro cultures of plant tissues were prepared using leaves, stems and seeds of Corylus avellana (hazel) and of Taxus baccata. Both species used derive from land cultivations in Piedmont and Liguria.
(§2) The plant material was first sterilised, immersing it in a 5% NaClO solution for 20 minutes, and then washed with sterile distilled water three times.
(§3) The plant parts were fragmented and transferred into sterile Petri dishes containing MS solid medium at a concentration of 4.3 g/l, containing vitamins (1 ml/l), sucrose (20 g/l), agar (10 g/l) and phytohormones at different concentrations, all previously sterilised in an autoclave at 121° C. for 15 minutes.
(§4) In the preparation of cultures in vitro 2,4-dichlorophenoxyacetic acid (2,4-D), naphthaleneacetic acid (NAA), benzyladenine (BA) were used as phytohormones, in the following combinations and concentrations: • 2,4-D 1 mg/l • 2,4-D 0.5 mg/l • BA 1 mg/l • BA 0.5 mg/l • 2,4-D 0.5 mg/l+BA 1 mg/l • 2,4-D 1 mg/l+BA 0.5 mg/l • NAA 2 mg/l • NAA 2 mg/l+BA 0.5 mg/l Callus Induction
(§5) For each type of plant tissue (leaf, stem, seed) and for each species (taxus, hazel) at least 96 dishes were prepared: 12 dishes for each hormone concentration or combination. The dishes containing the plant material were kept inside a phytochamber, in the dark and at a constant temperature of 26° C.
(§6) The fragments were transferred, every 15 days, into new dishes with fresh medium containing the corresponding starting hormone or mixture of hormones. After 15 and 30 days from the culturing of the hazel differentiated tissue explants, the formation of the callus was evaluated. The formation of the callus for the taxus was evaluated at 30 and at 60 days, since before then the callus was not clear.

[2] = tested on: explants of Corylus avellana; assay: callus induction from explants of Corylus avellana; details: for CALLUS INDUCTION 15 days Leaves (%) / CALLUS INDUCTION 30 days Leaves (%): C. avellana leaves; for CALLUS INDUCTION 15 days Seeds (%) / CALLUS INDUCTION 30 days Seeds (%): C. avellana seeds; for CALLUS INDUCTION 15 days Stems (%) / CALLUS INDUCTION 30 days Stems (%): C. avellana stems
Procedure: as §1, §2, §3, §4, §5, §6

callus of Taxus baccata = assay: regeneration of callus (formation of young plants), Taxus baccata; details: about three months from culturing
[3] = tested on: callus of Corylus avellana; assay: regeneration of callus (formation of young plants), Corylus avellana; details: about three months from culturing

Row | Compound | CALLUS INDUCTION 30 days Leaves (%) ([1]; hormone 0.5 mg/l) | CALLUS INDUCTION 30 days Leaves (%) ([1]; hormone 1 mg/l) | CALLUS INDUCTION 60 days Leaves (%) ([1]; hormone 0.5 mg/l) | CALLUS INDUCTION 60 days Leaves (%) ([1]; hormone 1 mg/l) | CALLUS INDUCTION 30 days Seeds (%) ([1]; hormone 0.5 mg/l) | CALLUS INDUCTION 30 days Seeds (%) ([1]; hormone 1 mg/l) | CALLUS INDUCTION 60 days Seeds (%) ([1]; hormone 0.5 mg/l) | CALLUS INDUCTION 60 days Seeds (%) ([1]; hormone 1 mg/l) | CALLUS INDUCTION 30 days Stems (%) ([1]; hormone 0.5 mg/l) | CALLUS INDUCTION 30 days Stems (%) ([1]; hormone 1 mg/l) | CALLUS INDUCTION 60 days Stems (%) ([1]; hormone 0.5 mg/l) | CALLUS INDUCTION 60 days Stems (%) ([1]; hormone 1 mg/l) | CALLUS INDUCTION 15 days Leaves (%) ([2]; hormone 0.5 mg/l) | CALLUS INDUCTION 15 days Leaves (%) ([2]; hormone 1 mg/l) | CALLUS INDUCTION 30 days Leaves (%) ([2]; hormone 0.5 mg/l) | CALLUS INDUCTION 30 days Leaves (%) ([2]; hormone 1 mg/l) | CALLUS INDUCTION 15 days Seeds (%) ([2]; hormone 0.5 mg/l) | CALLUS INDUCTION 15 days Seeds (%) ([2]; hormone 1 mg/l) | CALLUS INDUCTION 30 days Seeds (%) ([2]; hormone 0.5 mg/l) | CALLUS INDUCTION 30 days Seeds (%) ([2]; hormone 1 mg/l) | other results
1 | O=C(O)COc1ccc(Cl)cc1Cl [2,4-D, 2,4-dichlorophenoxyacetic acid] | 10.9 | 25.3 | 63.8 | 56.3 | 17.4 | 26.5 | 43.7 | 37.7 | 46.8 | 67.0 | 65.8 | 76.3 | 40.8 | 35.3 | 41.86 | 35.5 | 27.7 | 28.3 | 61.6 | 56.2 | CALLUS INDUCTION 15 days Stems (%) ([2]; hormone 0.5 mg/l): 30.5%; CALLUS INDUCTION 15 days Stems (%) ([2]; hormone 1 mg/l): 25.0%; CALLUS INDUCTION 30 days Stems (%) ([2]; hormone 0.5 mg/l): 75.0%; CALLUS INDUCTION 30 days Stems (%) ([2]; hormone 1 mg/l): 68.5%; FORMATION OF YOUNG PLANTS (%) T. baccata (callus of Taxus baccata; hormone 0.5 mg/l): 0%; FORMATION OF YOUNG PLANTS (%) T. baccata (callus of Taxus baccata; hormone 1 mg/l): 0%; FORMATION OF YOUNG PLANTS (%) C. avellana ([3]; hormone 0.5 mg/l): 15.8%; FORMATION OF YOUNG PLANTS (%) C. avellana ([3]; hormone 1 mg/l): 15.5%
2 | c1ccc(CNc2ncnc3nc[nH]c23)cc1 [BA, benzyladenine] | 2.0 | 2.0 | 4.5 | 3.0 | 6.2 | 0 | 32.7 | 0 | 2.0 | 2.5 | 9.0 | 2.8 | 1.7 | 0 | 4.6 | 4.6 | 5.1 | 4.0 | 10.3 | 13.8 | activity in callus induction of taxus cultures ([1]; taxus cultures, exception stated for callus from seed at 60 days): not to be very active; CALLUS INDUCTION 15 days Stems (%) ([2]; hormone 0.5 mg/l): 0%; CALLUS INDUCTION 15 days Stems (%) ([2]; hormone 1 mg/l): 2.5%; CALLUS INDUCTION 30 days Stems (%) ([2]; hormone 0.5 mg/l): 0%; CALLUS INDUCTION 30 days Stems (%) ([2]; hormone 1 mg/l): 15.0%; suitability for inducing callus from hazel ([2]; used alone at a concentration of 0.5 and 1 mg/l): least suitable for inducing callus from hazel; FORMATION OF YOUNG PLANTS (%) T. baccata (callus of Taxus baccata; hormone 0.5 mg/l): 0%; FORMATION OF YOUNG PLANTS (%) T. baccata (callus of Taxus baccata; hormone 1 mg/l): 0%; FORMATION OF YOUNG PLANTS (%) C. avellana ([3]; hormone 0.5 mg/l): 13.3%; FORMATION OF YOUNG PLANTS (%) C. avellana ([3]; hormone 1 mg/l): 8.7%
3 | O=C(O)Cc1cccc2ccccc12 [NAA, naphthaleneacetic acid] |  |  |  |  |  |  |  |  |  |  |  |  |  |  |  |  |  |  |  |  | CALLUS INDUCTION 30 days Leaves (%) ([1]; hormone 2 mg/l): 23.8%; CALLUS INDUCTION 60 days Leaves (%) ([1]; hormone 2 mg/l): 33.0%; CALLUS INDUCTION 30 days Seeds (%) ([1]; hormone 2 mg/l): 28.0%; CALLUS INDUCTION 60 days Seeds (%) ([1]; hormone 2 mg/l): 52.0%; CALLUS INDUCTION 30 days Stems (%) ([1]; hormone 2 mg/l): 55.0%; CALLUS INDUCTION 60 days Stems (%) ([1]; hormone 2 mg/l): 56.3%; CALLUS INDUCTION 15 days Leaves (%) ([2]; hormone 2 mg/l): 8.3%; CALLUS INDUCTION 30 days Leaves (%) ([2]; hormone 2 mg/l): 22.1%; CALLUS INDUCTION 15 days Seeds (%) ([2]; hormone 2 mg/l): 4.4%; CALLUS INDUCTION 30 days Seeds (%) ([2]; hormone 2 mg/l): 41.3%; CALLUS INDUCTION 15 days Stems (%) ([2]; hormone 2 mg/l): 8.3%; CALLUS INDUCTION 30 days Stems (%) ([2]; hormone 2 mg/l): 5.4%; FORMATION OF YOUNG PLANTS (%) T. baccata (callus of Taxus baccata; hormone 2 mg/l): 1%; FORMATION OF YOUNG PLANTS (%) C. avellana ([3]; hormone 2 mg/l): 14.4%
